According to paper PMC4556614 (PLoS ONE, 2015):
Like-named read-outs stand apart in the source and are kept apart here.

How the values were obtained:
OCT2 [1] = target: T1, OCT2 (Homo sapiens, UniProt O15244); experiment: in vitro; settings: for inhibition at 3 min, 20 µM / inhibition at 3 min, 200 µM: pH 7.3, probe [14C]metformin, 1000 µM, metformin 1000 μM, net uptake HEK-OCT2 minus HEK-VC; for inhibition at 3 min, 20 µM: % Inhibition of OCT2-dependent MF uptake at 20 µM (mean ± SEM), test drug 20 µM; for inhibition at 3 min, 200 µM: % Inhibition of OCT2-dependent MF uptake at 200 µM (mean ± SEM), test drug 200 µM
T1 sequence (O15244 whole entry): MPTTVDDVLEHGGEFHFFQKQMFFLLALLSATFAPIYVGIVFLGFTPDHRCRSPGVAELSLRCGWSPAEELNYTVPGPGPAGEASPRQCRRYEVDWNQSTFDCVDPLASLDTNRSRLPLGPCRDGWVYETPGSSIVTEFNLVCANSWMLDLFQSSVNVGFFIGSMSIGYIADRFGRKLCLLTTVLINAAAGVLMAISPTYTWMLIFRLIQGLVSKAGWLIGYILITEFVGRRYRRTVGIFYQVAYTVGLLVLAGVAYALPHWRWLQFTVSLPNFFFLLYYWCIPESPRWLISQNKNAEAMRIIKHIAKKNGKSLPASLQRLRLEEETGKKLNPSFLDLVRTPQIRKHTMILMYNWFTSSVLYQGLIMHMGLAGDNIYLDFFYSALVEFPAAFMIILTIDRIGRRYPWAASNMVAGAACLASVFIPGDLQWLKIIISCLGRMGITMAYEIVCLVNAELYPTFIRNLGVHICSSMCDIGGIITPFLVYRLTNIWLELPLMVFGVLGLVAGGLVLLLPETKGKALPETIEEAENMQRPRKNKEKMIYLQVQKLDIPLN
Experimental: (§1) For the transport assays HEK cell lines stably transfected with human OCT2 (HEK-OCT2) or the vector only (HEK-VC) were used. The HEK-OCT2 cell line was established and characterized previously. HEK-OCT2 and HEK-VC cells were seeded in poly-D-lysine (Sigma Aldrich, Taufkirchen, Germany) coated 48-well-plates at a density of 1.2 x 10^5 cells/well. […] Uptake was stopped by washing the cells three times with ice-cold uptake buffer. Afterwards, cells were lysed with 5 mM Tris buffer (pH 7.3) containing 0.1% Triton X-100. The intracellular accumulation of radioactivity was determined by liquid scintillation counting (PerkinElmer, Rodgau-Jügesheim, Germany) and protein concentration of each lysate was measured with bicinchonic acid assay (BCA Protein Assay Kit, Thermo Fisher Scientific, Waltham, MA, USA). We performed two to eight experiments each on at least two separate days, i.e., n = 4–16.
Experimental half-maximal inhibitory concentrations (IC50 values) were measured as the substrate uptake in the presence of increasing concentrations of test drugs. These experiments were performed as described above (three experiments each on two separate days, i.e., n = 6). IC50 values were calculated with GraphPad Prism 5.0 (GraphPad Software, San Diego, CA, USA). IC50 was estimated by a sigmoidal inhibition model and was fit to the equation V = V 0 / (1 + (I / IC50 ) ^n ) by nonlinear regression. V is the net uptake in the presence of the inhibitor, V 0 is the net uptake in the absence of the inhibitor, I is the concentration of the inhibitor and n is the slope.

OCT2 [2] = target: T1, OCT2; experiment: Inhibition of OCT2-mediated [3H]MPP+ uptake in HEK-OCT2 cells; settings: for inhibition at 3 min, 20 µM / inhibition at 3 min, 200 µM: pH 7.3, probe [3H]MPP+, 50 µM
Experimental: as §1

[3] = test drug 20 µM, MPP+ 50 μM, 3 min, net uptake HEK-OCT2 minus HEK-VC
[4] = test drug 200 µM, MPP+ 50 μM, 3 min, net uptake HEK-OCT2 minus HEK-VC

Compound | % Inhibition of OCT2-dependent MPP+ uptake at 20 µM (mean ± SEM) (OCT2 [2]; [3]) | % Inhibition of OCT2-dependent MPP+ uptake at 200 µM (mean ± SEM) (OCT2 [2]; [4]) | % Inhibition of OCT2-dependent MF uptake at 20 µM (mean ± SEM) (OCT2 [1]; human, pH 7.3) | % Inhibition of OCT2-dependent MF uptake at 200 µM (mean ± SEM) (OCT2 [1]; human, pH 7.3) | other results
Cl.Cl.OCCN1CCN(CCC=C2c3ccccc3Sc3ccc(C(F)(F)F)cc32)CC1 (mixture of isomers) [Flupentixol] | 22.9 ± 7.5% | 107.8 ± 5.0% |  |  | % Inhibition of OCT2-dependent MF uptake at 20 µM (mean ± SEM) (OCT2 [1]): 75.0 ± 7.9; % Inhibition of OCT2-dependent MF uptake at 200 µM (mean ± SEM) (OCT2 [1]): 96.1 ± 2.1
N[C@@H]1C[C@H]1c1ccccc1 (racemic) [Tranylcypromine] |  |  |  |  | % Inhibition of OCT2-dependent MF uptake at 20 µM (mean ± SEM) (OCT2 [1]): 39.0 ± 3.3; % Inhibition of OCT2-dependent MF uptake at 200 µM (mean ± SEM) (OCT2 [1]): 79.1 ± 2.9; % Inhibition of OCT2-dependent MPP+ uptake at 20 µM (mean ± SEM) (OCT2 [2]): 27.8 ± 5.6; % Inhibition of OCT2-dependent MPP+ uptake at 200 µM (mean ± SEM) (OCT2 [2]): 54.7 ± 3.1
CC(=O)Oc1ccccc1C(=O)O [ASA, acetylsalicylic acid] | -10.6 ± 5.7% | -1.5 ± 4.5% | -18.7 ± 11.0% | 1.3 ± 8.9% | 
CC(=O)NCCCS(=O)(=O)O [Acamprosate] | -8.1 ± 4.4% | -7.7 ± 5.2% | 2.7 ± 4.8% | 0.9 ± 5.8% | 
CC(=O)N[C@@H](CS)C(=O)O [Acetylcysteine] | -35.6 ± 7.7% | -36.0 ± 3.2% | 13.2 ± 6.3% | 11.0 ± 9.4% | 
COc1ccc2cccc(CCNC(C)=O)c2c1 [Agomelatine] |  |  |  |  | inhibition at 3 min, 20 µM (OCT2 [1]; human): 71.3 ± 2.6%; inhibition at 3 min, 200 µM (OCT2 [1]; human): 95.5 ± 1.8%; inhibition at 3 min, 20 µM (OCT2 [2]; human): -10.3 ± 2.7%; inhibition at 3 min, 200 µM (OCT2 [2]; human): 39.9 ± 3.5%
Oc1ncnc2[nH]ncc12 [Allopurinol] |  |  |  |  | inhibition at 3 min, 20 µM (OCT2 [1]; human): 24.8 ± 6.9%; inhibition at 3 min, 200 µM (OCT2 [1]; human): 26.8 ± 3.9%; inhibition at 3 min, 20 µM (OCT2 [2]; human): 35.6 ± 7.5%; inhibition at 3 min, 200 µM (OCT2 [2]; human): 52.7 ± 8.8%
CCN1CCCC1CNC(=O)c1cc(S(=O)(=O)CC)c(N)cc1OC (centres unmarked) [Amisulpride] |  |  |  |  | inhibition at 3 min, 20 µM (OCT2 [1]; human): 52 ± 2.1%; inhibition at 3 min, 200 µM (OCT2 [1]; human): 91.7 ± 0.7%; inhibition at 3 min, 20 µM (OCT2 [2]; human): 25.5 ± 7%; inhibition at 3 min, 200 µM (OCT2 [2]; human): 51.3 ± 6.7%
CCOC(=O)C1=C(COCCN)NC(C)=C(C(=O)OC)C1c1ccccc1Cl (centres unmarked) [Amlodipine] | -13.8 ± 7.4% | 39.3 ± 6.8% | 21.9 ± 9.0% | 110.0 ± 17.3% | 
CC1(C)S[C@@H]2[C@H](NC(=O)[C@H](N)c3ccc(O)cc3)C(=O)N2[C@H]1C(=O)O [Amoxicillin] | -21.0 ± 11.1% | -13.5 ± 14.5% | 3.2 ± 6.6% | 4.5 ± 5.1% | 
O=C1CCc2ccc(OCCCCN3CCN(c4cccc(Cl)c4Cl)CC3)cc2N1 [Aripiprazole] | 6.7 ± 3.6% | 16.9 ± 5.2% | 53.4 ± 9.1% | 82.0 ± 6.7% | 
O=C(CCCN1CCC(n2c(O)nc3ccccc32)CC1)c1ccc(F)cc1 [Benperidol] | -21.5 ± 2.8% | 1.6 ± 8.3% | 58.7 ± 3.3% | 72.2 ± 2.7% | 
CC(C)NCC(O)COc1ccc(COCCOC(C)C)cc1 (centres unmarked) [Bisoprolol] | -16.1 ± 2.2% | 11.8 ± 5.5% | 57.2 ± 4.0% | 75.8 ± 4.5% | 
O=C1CN=C(c2ccccn2)c2cc(Br)ccc2N1 [Bromazepam] |  |  | 27.6 ± 2.6% | 77.9 ± 1.4% | % Inhibition of OCT2-dependent MPP+ uptake at 20 µM (mean ± SEM) (OCT2 [2]; human, pH 7.3): -16.3 ± 9.0%; % Inhibition of OCT2-dependent MPP+ uptake at 200 µM (mean ± SEM) (OCT2 [2]; human, pH 7.3): 14.7 ± 8.3%
